# Source: ChEMBL document CHEMBL3286142, “Synthesis and antihyperglycemic evaluation of new 2-hydrazolyl-4-thiazolidinone-5-carboxylic acids having pyrazolyl pharmacophores” (2014)
# Tested on: Rattus norvegicus
# Assay: Antihyperglycemic activity in sucrose loaded albino Sprague-Dawley rat model assessed as improvement of glucose tolerance by measuring reduction in glucose AUC at 100 mg/kg, po administered 30 mins prior to sucrose load measured for 2 hrs by oral sucrose tolerance test
# Type: functional
# Parameters: scale not given: the % may be the effect or the level left
row,Compound,Activity [%]
1,O=C(O)CC1S/C(=N\N=C/c2cn(-c3ccccc3)nc2-c2ccc(F)cc2)NC1=O (configuration not stated),7.64
2,O=C(O)CC1S/C(=N\N=C/c2cn(-c3ccccc3)nc2-c2ccc([N+](=O)[O-])cc2)NC1=O (configuration not stated),7.57
3,O=C(O)CC1S/C(=N\N=C/c2cn(-c3ccccc3)nc2-c2ccc(O)cc2)NC1=O (configuration not stated),7.97
4,COc1ccc(-c2nn(-c3ccccc3)cc2/C=N\N=C2\NC(=O)C(CC(=O)O)S2)cc1 (configuration not stated),6.97
5,Cc1ccc(-c2nn(-c3ccccc3)cc2/C=N\N=C2\NC(=O)C(CC(=O)O)S2)cc1 (configuration not stated),6.09
6,O=C(O)CC1S/C(=N\N=C/c2cn(-c3ccccc3)nc2-c2ccc(Br)cc2)NC1=O (configuration not stated),5.69
7,CN(C)C(=N)NC(=N)N [METFORMIN],14.1
